One assay relates to human myoblast cells. The experiment in a line: Human myoblast differentiation (% area eMyHC) with IGF2 and/or sodium butyrate. It counts as cell-based. As for the experimental part: Fresh media was added every 24 hours. […], cells were pulsed for 2-5 hours with EdU (30 uM), ethanol fixed, stained with Hoescht 3342, immunostained for proliferation—as measured by the percent of cells staining positive for EdU (% EdU)-, and immunostained for differentiation—as measured by the increase in cellular area staining positive for embryonic myosin heavy chain (% eMyHC) relative to the negative controls, which received media and vehicle only. The total area of eMyHc positive cells was analyzed, and treated cells were compared to cells treated with the vehicle alone. […] Significance was determined by a p-value less than 0.05 by the one-way ANOVA Tukey Honest Significant Difference test.
Myoblast were cultured 96 h in the presence of IGF2 at indicated dose. Fresh media and IGF2 was added every 24 h.
Fresh media was added every 24 hours.
Significance was determined by a p-value less than 0.05 by the one-way ANOVA Tukey Honest Significant Difference test.

For another assay, the system named is DM1 human myoblast. The experiment in a line: Myogenic gene expression fold change in DM1 human myoblast. It is filed as cell-based. To be noted: 48 h; BMP7 50 ng/mL, Butyrate 100 nM, IGF2 200 ng/mL. As for the experimental part:
Myoblasts were cultured 48 h in the presence of factors (BMP7 50 ng/mL, Butyrate 100 nM, IGF2 200 ng/mL).
Myoblasts were cultured 96 h in the presence of factors (IGF2 200 ng/ml). […] Myoblasts were cultured 48 h in the presence of factors (IGF2 200 ng/mL).
(§1) IGF2 was tested individually for its ability to promote proliferation and/or fusion of human muscle progenitor cells from an individual with myotonic dystrophy type 1 (hMD)—a muscular dystrophy caused by mutations in the DMPK1 gene. The effect of IGF2 on myogenic activity was assayed in biological triplicate across a range of concentrations centered around expected physiological levels by adding each factor to hMD myoblasts for 72 hours with daily media changes (DMEM +2% horse serum) and a second pulse of factors at the first media change. After 72 or 96 hours, cells were pulsed for 2-5 hours with EdU (30 uM), ethanol fixed, stained with Hoescht 3342, immunostained for proliferation—as measured by the percent of cells staining positive for EdU (% EdU)-, and immunostained for differentiation—as measured by the increase in cellular area staining positive for embryonic myosin heavy chain (% eMyHC) relative to the negative controls, which received media and vehicle only. Wells were imaged on a Keyence BZ-100 at 4×, the images quantified in Cell Profiler, and the statistics were computed in R. Additionally, RNA was extracted from myoblast and select transcript abundances quantified by qPCR.

For a further assay, the system named is DM1 human myoblast cells. The experiment in a line: Proliferation (EdU) and fusion (% eMyHC area) in DM1 human myoblast. It is filed as cell-based. To be noted: 72 h for proliferation, fold change vs vehicle. The method, then: FIG. 7A Bar graph of % EdU+ human myoblast (person) and FIG. 7B % area MyHC in response to IGF2. Myoblast were cultured 72 h for proliferation and 96 h for fusion in the presence of indicated factor. Mean∓S.D. Mean∓SD. Significant p-values (EdU: Vehicle˜IGF2: 6.8E-3, % eMyHC Area: Vehicle˜IGF2: 1.9E-4) (*p<0.05 by Students Two-Tailed T-test, n=3-6).
as §1, with “The effect of IGF2 on myogenic activity was assayed in biological triplicate across a range of concentrations centered around expected physiological levels by adding each factor to hMD myoblasts for 72 hours with daily media changes (DMEM +2% horse serum) and a second pulse of factors at the first media change.” left out, “qPCR. […]” for “qPCR.”

For another assay, the system named is Aged human myoblasts. The experiment in a line: Myogenic transcription factor expression in aged human myoblasts (qPCR). It counts as cell-based. As for the experimental part:
RNA was isolated from each well (RNeasy Mini Kit, Qiagen) and cDNA was obtained by reverse-transcription (High Capacity Reverse Transcription Kit, Thermo Fisher Scientific). Real-time quantitative PCR was performed using QuantStudio3 (Thermo Fisher).
Aged human myoblasts were cultured in well plates. […] Cells that had been cultured with IGF2 had increases in levels of MYOG at 48 hours and levels of MYOD at 72 hours.
(In general: In qPCR the cycle at which signal appears reflects the starting amount.)

Assay [1] deals with 10 week old dystrophic mice (mdx). The experiment in a line: Duchenne muscular dystrophy model, 10 week old dystrophic mice (mdx). It is filed as in vivo. The conditions noted are these: 150 μg/kg with 1.2 g/kg sodium butyrate subcutaneously every 24 hours. As for the experimental part:
Between 3-6 weeks old, the skeletal muscle of mdx mice undergoes severe necrosis followed by an increase in the activation of satellite cells to promote muscle regeneration. Treatment with IGF2 fusion polypeptide described herein can improve the regeneration process and therefore muscle health. Mice were fed ad libitum and housed under controlled conditions of lighting (12-hour light/12-hour dark) and temperature (22-24° C.). Mice were allowed to acclimate for 3 days prior to the initiation of the experiment. During the acclimation period, the weight, forelimb and both limb grip strength as well as in vivo tetanic force were assessed to determine the baseline strength of each mouse. 10 week old dystrophic mice (mdx) were injected with the IGF2 fusion polypeptide with sodium butyrate subcutaneously for 14 days. At day 7, forelimb and both grip strength are measured as described in Example 4. BrdU was injected on days 12, 13 and 14. On days 13, 14 and 15, forelimb and both limb grip strength and in vivo tetanic force were tested, and an endurance test to determine max distance and max speed was performed using methods described in Example 4.
Mice were euthanized. The right tibialis anterior and gastrocnemius were collected, immersed in Tissue-TEK OCT and then flash frozen in a chilled isopentane bath precooled in liquid nitrogen and stored at −80° C. Tissue was sectioned and stained for Laminin to determine the cross sectional area (CSA) of muscle fibers, for eMyHC to measure new fiber formation and for BrdU to assess the proliferation rate. The left anterior tibialis and gastrocnemius were collected and flash frozen in liquid nitrogen for molecular analysis that include qPCR and western blot.

“IGF2: Human IGF2 amino acid sequence, SEQ ID NO: 29”: the “% eMyHC” value with human myoblast cells (IGF2 0.015 ug/mL alone, 96 h (FIG. 3B/3C)) is given as 10.843%. Moreover, the “% eMyHC” value in the assay on human myoblast cells (IGF2 0.03 ug/mL alone, 48 hours (FIG. 4A/4B)) was determined as 16.620%. For the same substance, in the assay on DM1 human myoblast, the “MYF5 expression fold change compared to FM (vehicle)” value was 0.730, the “MYOD1 expression fold change compared to FM (vehicle)” value worked out at 1.252 and the “MYOG expression fold change compared to FM (vehicle)” value came out at 2.972. Moreover, the “EdU FC” value with DM1 human myoblast cells was found to be 2.18. In the assay on Aged human myoblasts (48 h), the MYF5 fold change came out at 0.409, the MYOD1 fold change is reported as 0.519 and the MYOG fold change worked out at 5.756. Further, in the assay with Aged human myoblasts (72 h), the MYF5 fold change came to 0.708, the MYOD1 fold change came to 5.723 and the MYOG fold change is given as 0.018. In assay [1], the bothlimb grip strength result is given as “effective at improving”, the forelimb grip strength entry is “effective at improving”, the total work result is “effective at improving” and the treadmill running distance result is “effective at improving”. Further, the “treadmill running time to exhaustion” value in assay [1] is given as “effective at improving”. For the same substance, in assay [1] (vs vehicle), the muscle weight entry is recorded as “effective at improving”.

Values taken from patent publication US12329801B2, “Regenerative polypeptides and uses thereof” (JUVENA THERAPEUTICS, INC., priority 2021, dated 2025).
